Laboratory results taken from PubChem BioAssay (NCI).
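Values below derive from 48-hour exposures of cells grown in 96-well plates, with endpoints linearly interpolated between the two concentrations bracketing the appropriate inhibition level. TGI denotes the concentration required for complete inhibition of growth.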

Columns and labels:
Experiment in all cases: NCI tumour cell line growth inhibition, 48 h
HS 578T breast = tested on: HS 578T breast
HOP-62 NSCLC = tested on: HOP-62 NSCLC
BT-549 breast = tested on: BT-549 breast
CCRF-CEM leukemia = tested on: CCRF-CEM leukemia
HT29 colon = tested on: HT29 colon
OVCAR-8 ovarian = tested on: OVCAR-8 ovarian
SK-OV-3 ovarian = tested on: SK-OV-3 ovarian
SK-MEL-2 melanoma = tested on: SK-MEL-2 melanoma
NCI/ADR-RES ovarian = tested on: NCI/ADR-RES ovarian
K-562 leukemia = tested on: K-562 leukemia
SN12C renal = tested on: SN12C renal
UACC-257 melanoma = tested on: UACC-257 melanoma
M14 melanoma = tested on: M14 melanoma
IGROV1 ovarian = tested on: IGROV1 ovarian
MCF7 breast = tested on: MCF7 breast
MALME-3M melanoma = tested on: MALME-3M melanoma
OVCAR-3 ovarian = tested on: OVCAR-3 ovarian
SNB-19 CNS = tested on: SNB-19 CNS
NCI-H460 lung = tested on: NCI-H460 lung
HL-60(TB) leukemia = tested on: HL-60(TB) leukemia
TK-10 renal = tested on: TK-10 renal
RPMI-8226 leukemia = tested on: RPMI-8226 leukemia
OVCAR-5 ovarian = tested on: OVCAR-5 ovarian
OVCAR-4 ovarian = tested on: OVCAR-4 ovarian
NCI-H522 lung = tested on: NCI-H522 lung
MOLT-4 leukemia = tested on: MOLT-4 leukemia
COLO 205 colon = tested on: COLO 205 colon
NCI-H226 lung = tested on: NCI-H226 lung
A498 renal = tested on: A498 renal
U251 CNS = tested on: U251 CNS
SF-295 CNS = tested on: SF-295 CNS
SK-MEL-28 melanoma = tested on: SK-MEL-28 melanoma
786-0 renal = tested on: 786-0 renal
MDA-MB-435 = tested on: MDA-MB-435
HCT-116 colon = tested on: HCT-116 colon
ACHN renal = tested on: ACHN renal
HCC-2998 colon = tested on: HCC-2998 colon
SF-268 CNS = tested on: SF-268 CNS
DU-145 prostate = tested on: DU-145 prostate
T-47D breast = tested on: T-47D breast
LOX IMVI melanoma = tested on: LOX IMVI melanoma
SW-620 colon = tested on: SW-620 colon
CAKI-1 renal = tested on: CAKI-1 renal
SF-539 CNS = tested on: SF-539 CNS
HOP-92 NSCLC = tested on: HOP-92 NSCLC
SK-MEL-5 melanoma = tested on: SK-MEL-5 melanoma
UACC-62 melanoma = tested on: UACC-62 melanoma
RXF 393 renal = tested on: RXF 393 renal
A549 NSCLC = tested on: A549 NSCLC
KM12 colon = tested on: KM12 colon
HCT-15 colon = tested on: HCT-15 colon
SR leukemia = tested on: SR leukemia
EKVX NSCLC = tested on: EKVX NSCLC
SNB-75 CNS = tested on: SNB-75 CNS
MDA-MB-231 breast = tested on: MDA-MB-231 breast
UO-31 renal = tested on: UO-31 renal
MDA-N = tested on: MDA-N
NCI-H23 lung = tested on: NCI-H23 lung
PC-3 prostate = tested on: PC-3 prostate

Question: How did the TGI (HS 578T breast) turn out when O=C(Nc1ccc(Cl)cc1)c1cc(S(=O)(=O)NC2=NC(c3ccccc3)c3cc(Cl)ccc3N2)c(SSc2cc(Cl)c(C(=O)Nc3ccc(Cl)cc3)cc2S(=O)(=O)NC2=NC(c3ccccc3)c3cc(Cl)ccc3N2)cc1Cl (stereo not drawn) was run?
Answer: The TGI was > 100 µM.

Question: And the TGI (HOP-62 NSCLC)?
Answer: Its TGI is > 100 µM.

Question: And the TGI (BT-549 breast)?
Answer: Its TGI is > 100 µM.

Question: What about the TGI (CCRF-CEM leukemia) of the same compound?
Answer: Its TGI is > 40.1 µM.

Question: And the TGI (HT29 colon)?
Answer: Its TGI is > 100 µM.

Question: And the TGI (OVCAR-8 ovarian)?
Answer: Its TGI is > 100 µM.

Question: What about the TGI (SK-OV-3 ovarian) of the same compound?
Answer: Its TGI is > 100 µM.

Question: What about the TGI (SK-MEL-2 melanoma) of the same compound?
Answer: Its TGI is > 100 µM.

Question: And the TGI (NCI/ADR-RES ovarian)?
Answer: Its TGI is > 100 µM.

Question: What about the TGI (K-562 leukemia) of the same compound?
Answer: The TGI was > 100 µM.

Question: What about the TGI (SN12C renal) of the same compound?
Answer: The TGI was > 100 µM.

Question: And the TGI (UACC-257 melanoma)?
Answer: The TGI was > 100 µM.

Question: And the TGI (M14 melanoma)?
Answer: The TGI was > 100 µM.

Question: What about the TGI (IGROV1 ovarian) of the same compound?
Answer: Its TGI is > 100 µM.

Question: And the TGI (MCF7 breast)?
Answer: The TGI was > 100 µM.

Question: What about the TGI (MALME-3M melanoma) of the same compound?
Answer: The TGI was > 100 µM.

Question: And the TGI (OVCAR-3 ovarian)?
Answer: Its TGI is > 100 µM.

Question: And the TGI (SNB-19 CNS)?
Answer: The TGI was > 100 µM.

Question: What about the TGI (NCI-H460 lung) of the same compound?
Answer: Its TGI is > 100 µM.

Question: And the TGI (HL-60(TB) leukemia)?
Answer: Its TGI is > 42.6 µM.

Question: And the TGI (TK-10 renal)?
Answer: Its TGI is > 100 µM.

Question: What about the TGI (RPMI-8226 leukemia) of the same compound?
Answer: The TGI was > 100 µM.

Question: And the TGI (OVCAR-5 ovarian)?
Answer: Its TGI is > 100 µM.

Question: What about the TGI (OVCAR-4 ovarian) of the same compound?
Answer: The TGI was > 100 µM.

Question: What about the TGI (NCI-H522 lung) of the same compound?
Answer: The TGI was > 100 µM.

Question: What about the TGI (MOLT-4 leukemia) of the same compound?
Answer: Its TGI is > 61.6 µM.

Question: What about the TGI (COLO 205 colon) of the same compound?
Answer: The TGI was > 100 µM.

Question: What about the TGI (NCI-H226 lung) of the same compound?
Answer: Its TGI is > 100 µM.

Question: And the TGI (A498 renal)?
Answer: Its TGI is > 100 µM.

Question: And the TGI (U251 CNS)?
Answer: The TGI was > 100 µM.

Question: What about the TGI (SF-295 CNS) of the same compound?
Answer: Its TGI is > 100 µM.

Question: What about the TGI (SK-MEL-28 melanoma) of the same compound?
Answer: The TGI was > 100 µM.

Question: What about the TGI (786-0 renal) of the same compound?
Answer: Its TGI is > 100 µM.

Question: And the TGI (MDA-MB-435)?
Answer: Its TGI is > 100 µM.

Question: What about the TGI (HCT-116 colon) of the same compound?
Answer: Its TGI is > 100 µM.

Question: What about the TGI (ACHN renal) of the same compound?
Answer: The TGI was > 100 µM.

Question: What about the TGI (HCC-2998 colon) of the same compound?
Answer: The TGI was > 100 µM.

Question: What about the TGI (SF-268 CNS) of the same compound?
Answer: Its TGI is > 100 µM.

Question: And the TGI (DU-145 prostate)?
Answer: The TGI was > 100 µM.

Question: And the TGI (T-47D breast)?
Answer: Its TGI is > 100 µM.

Question: What about the TGI (LOX IMVI melanoma) of the same compound?
Answer: The TGI was > 100 µM.

Question: What about the TGI (SW-620 colon) of the same compound?
Answer: The TGI was > 100 µM.

Question: What about the TGI (CAKI-1 renal) of the same compound?
Answer: Its TGI is > 100 µM.

Question: What about the TGI (SF-539 CNS) of the same compound?
Answer: Its TGI is > 100 µM.

Question: What about the TGI (HOP-92 NSCLC) of the same compound?
Answer: The TGI was > 100 µM.

Question: And the TGI (SK-MEL-5 melanoma)?
Answer: The TGI was > 100 µM.

Question: And the TGI (UACC-62 melanoma)?
Answer: The TGI was > 100 µM.

Question: And the TGI (RXF 393 renal)?
Answer: Its TGI is > 100 µM.

Question: What about the TGI (A549 NSCLC) of the same compound?
Answer: The TGI was > 100 µM.

Question: What about the TGI (KM12 colon) of the same compound?
Answer: Its TGI is > 100 µM.

Question: What about the TGI (HCT-15 colon) of the same compound?
Answer: The TGI was > 100 µM.

Question: What about the TGI (SR leukemia) of the same compound?
Answer: Its TGI is 58.5 µM.

Question: And the TGI (EKVX NSCLC)?
Answer: Its TGI is > 100 µM.

Question: What about the TGI (SNB-75 CNS) of the same compound?
Answer: Its TGI is > 100 µM.

Question: What about the TGI (MDA-MB-231 breast) of the same compound?
Answer: Its TGI is > 100 µM.

Question: And the TGI (UO-31 renal)?
Answer: The TGI was > 100 µM.

Question: What about the TGI (MDA-N) of the same compound?
Answer: The TGI was > 100 µM.

Question: What about the TGI (NCI-H23 lung) of the same compound?
Answer: The TGI was > 100 µM.

Question: And the TGI (PC-3 prostate)?
Answer: Its TGI is > 100 µM.

Question: Which results are given for CC1(C)OCC(C2OC(=O)C(OCc3ccccc3)=C2OCc2ccccc2)O1 (stereo not drawn)?
Answer: TGI (HS 578T breast): > 100 µM; TGI (HOP-62 NSCLC): > 100 µM; TGI (BT-549 breast): 93.2 µM; TGI (CCRF-CEM leukemia): > 100 µM; TGI (HT29 colon): > 100 µM; TGI (OVCAR-8 ovarian): > 100 µM; TGI (SK-OV-3 ovarian): > 100 µM; TGI (SK-MEL-2 melanoma): 61 µM; TGI (NCI/ADR-RES ovarian): > 100 µM; TGI (K-562 leukemia): > 100 µM; TGI (SN12C renal): > 100 µM; TGI (UACC-257 melanoma): 96.8 µM; TGI (M14 melanoma): > 100 µM; TGI (IGROV1 ovarian): > 100 µM; TGI (MCF7 breast): > 100 µM; TGI (MALME-3M melanoma): 93.9 µM; TGI (OVCAR-3 ovarian): > 100 µM; TGI (SNB-19 CNS): > 100 µM; TGI (NCI-H460 lung): > 100 µM; TGI (HL-60(TB) leukemia): 52 µM; TGI (TK-10 renal): > 100 µM; TGI (RPMI-8226 leukemia): 76.5 µM; TGI (OVCAR-5 ovarian): > 100 µM; TGI (OVCAR-4 ovarian): > 100 µM; TGI (NCI-H522 lung): 78.4 µM; TGI (MOLT-4 leukemia): 73.1 µM; TGI (COLO 205 colon): 50.6 µM; TGI (NCI-H226 lung): > 100 µM; TGI (A498 renal): 90.5 µM; TGI (U251 CNS): > 100 µM; TGI (SF-295 CNS): > 100 µM; TGI (SK-MEL-28 melanoma): > 100 µM; TGI (786-0 renal): > 100 µM; TGI (MDA-MB-435): 79.4 µM; TGI (HCT-116 colon): > 100 µM; TGI (ACHN renal): > 100 µM; TGI (HCC-2998 colon): > 100 µM; TGI (SF-268 CNS): > 100 µM; TGI (DU-145 prostate): > 100 µM; TGI (T-47D breast): > 100 µM; TGI (LOX IMVI melanoma): > 100 µM; TGI (SW-620 colon): > 100 µM; TGI (CAKI-1 renal): > 100 µM; TGI (SF-539 CNS): > 100 µM; TGI (HOP-92 NSCLC): > 100 µM; TGI (SK-MEL-5 melanoma): 32.3 µM; TGI (UACC-62 melanoma): > 100 µM; TGI (RXF 393 renal): > 100 µM; TGI (A549 NSCLC): > 100 µM; TGI (KM12 colon): > 100 µM; TGI (HCT-15 colon): > 100 µM; TGI (SR leukemia): > 100 µM; TGI (EKVX NSCLC): > 100 µM; TGI (SNB-75 CNS): > 100 µM; TGI (MDA-MB-231 breast): > 100 µM; TGI (UO-31 renal): > 100 µM; TGI (MDA-N): > 100 µM; TGI (NCI-H23 lung): 92.5 µM; TGI (PC-3 prostate): 78.1 µM
